# Laboratory results published in patent US12116357B2, “Heteroaryl-triazole and heteroaryl-tetrazole compounds as pesticides” (Bayer Aktiengesellschaft, priority 2018, dated 2024).
# Read-outs that look alike come from different tables or passages of the source.
# Assays:
# [1] = test system: Phaedon cochleariae; assay: Phaedon cochleariae spray test; assay type: in vivo; details: 168 h, after 7 days
# Protocol: (§1) • Solvent: 78.0 parts by weight of acetone • 1.5 parts by weight of dimethylformamide • Emulsifier: alkylarylpolyglycol ether
# (§2) To produce a suitable preparation of active compound, 1 part by weight of active compound is mixed with the stated amount of solvents and is diluted with water, containing an emulsifier concentration of 1000 ppm, to the desired concentration. Further test concentrations are prepared by dilution with emulsifier containing water.
# Chinese cabbage (Brassica pekinensis) leaf disks are sprayed with a preparation of the active ingredient of the desired concentration. Once dry, the leaf disks are infested with mustard beetle larvae (Phaedon cochleariae).
# After 7 days mortality in % is determined. 100% means all beetle larvae have been killed and 0% means none of the beetle larvae have been killed.
# [2] = test system: Ctenocephalides felis; assay: Ctenocephalides felis oral test; assay type: in vivo; details: 48 h, 100 ppm in cattle blood, after 2 days
# Protocol: (§3) • Solvent: dimethyl sulfoxide
# To produce a suitable preparation of active compound, 10 mg of active compound are dissolved in 0.5 ml solvent, and the concentrate is diluted with cattle blood to the desired concentration.
# Approximately 20 adult unfed cat fleas (Ctenocephalides felis) are placed in flea chambers. The blood chamber, sealed with parafilm on the bottom, are filled with cattle blood supplied with compound solution and placed on the gauze covered top of the flea chamber, so that the fleas are able to suck the blood. The blood chamber is heated to 37° C. whereas the flea chamber is kept at room temperature.
# After 2 days mortality in % is determined. 100% means all the fleas have been killed; 0% means none of the fleas have been killed.
# [3] = test system: Spodoptera frugiperda; assay: Spodoptera frugiperda spray test; assay type: in vivo; details: 168 h
# Protocol: • Solvent: 78.0 parts by weight acetone • 1.5 parts by weight dimethylformamide • Emulsifier: alkylarylpolyglycol ether
# as §2
# Maize (Zea mays) leaf sections are sprayed with a preparation of the active ingredient of the desired concentration. Once dry, the leaf sections are infested with fall armyworm larvae (Spodoptera frugiperda).
# After 7 days mortality in % is determined. 100% means all caterpillars have been killed and 0% means none of the caterpillars have been killed.
# [4] = test system: Aedes aegypti strain MONHEIM; assay: Aedes aegypti test (surface treatment & contact assay); assay type: in vivo; details: 24 hours after contact, read-out: efficacy (mortality); for mortality at 20 mg/m2: surface concentration 20 mg/m^2, 30 min exposure
# Protocol: (§4) • Solvent: Aceton+2000 ppm rapeseed oil methyl ester (RME)
# In order to produce a sufficient, active ingredient containing solution it is necessary to solve the test compound in the solvent-mix (acetone at 2 mg/ml/RME 2000 ppm). This solution is pipetted onto a glazed tile and after evaporation of the acetone, adult mosquitoes of the species Aedes aegypti strain MONHEIM are placed onto the dried surface. The exposure time is 30 minutes.
# (§5) Mortality in percent (%) is determined 24 hours after contact of the insects to the treated surface. 100% mortality means that all tested insects are dead, whereas 0% means that no insect died.
# [5] = test system: Myzus persicae; assay: Myzus persicae oral test; assay type: in vivo; details: 120 h
# Protocol: • Solvent: 100 parts by weight acetone
# To produce a suitable preparation of active compound, 1 part by weight of active compound is mixed with the stated amount of solvent, and the concentrate is diluted with water to the desired concentration. 50 μl compound solution is filled in microtiter plates and 150 μl IPL41 insect medium (33%+15% sugar) is added to obtain a total volume of 200 μl per well. Afterwards the plates are sealed with parafilm through which a mixed population of the green peach aphid (Myzus persicae) can suck on the compound preparation.
# After 5 days mortality in % is determined. 100% means all aphids have been killed and 0% means none of the aphids have been killed.
# [6] = test system: Boophilus microplus; assay: Boophilus microplus injection test; assay type: in vivo; details: Rhipicephalus microplus, 168 h, 20 μg/animal, egg deposition after 7 days, read-out: efficacy (infertile eggs)
# Protocol: as §3
# To produce a suitable preparation of active compound, 10 mg of active compound are dissolved in 0.5 ml solvent, and the concentrate is diluted with solvent to the desired concentration.
# Five adult engorged female ticks (Boophilus microplus) are injected with 1 μl compound solution into the abdomen. The ticks are transferred into replica plates and incubated in a climate chamber.
# After 7 days egg deposition of fertile eggs is monitored. Eggs where fertility is not visible are stored in a climate chamber till hatching after about 42 days. An efficacy of 100% means all eggs are infertile; 0% means all eggs are fertile.
# [7] = test system: Nezara viridula; assay: Nezara viridula spray test; assay type: in vivo; details: 96 h
# Protocol: as §1
# To produce a suitable preparation of active compound, 1 part by weight of active compound is mixed with the stated amount of solvent, and the concentrate is diluted with water, containing an emulsifier concentration of 1000 ppm, to the desired concentration. Further test concentrations are prepared by dilution with emulsifier containing water.
# Barley plants (Hordeum vulgare) infested with larvae of the southern green stink bug (Nezara viridula) are sprayed with a test solution containing the desired concentration of the active ingredient.
# After 4 days mortality in % is determined. 100% means all the stink bugs have been killed; 0% means none of the stink bugs have been killed.
# [8] = test system: Nilaparvata lugens; assay: Nilaparvata lugens spray test; assay type: in vivo; details: 96 h
# Protocol: as §1, §2
# Rice plants (Oryza sativa) are sprayed with a preparation of the active ingredient of the desired concentration and the plants are infested with the brown planthopper (Nilaparvata lugens).
# After 4 days mortality in % is determined. 100% means all planthoppers have been killed and 0% means none of the planthoppers have been killed.
# [9] = test system: Musca domestica strain WHO-N; assay: Musca domestica test (surface treatment & contact assay); assay type: in vivo; details: 24 hours after contact, read-out: efficacy (mortality)
# Protocol: as §4
# In order to produce a sufficient, active ingredient containing solution it is necessary to solve the test compound in the solvent-mix (acetone at 2 mg/ml/RME 2000 ppm). This solution is pipetted onto a glazed tile and after evaporation of the acetone, adult flies of the species Musca domestica strain WHO-N are placed onto the dried surface. The exposure time is 30 minutes.
# as §5
# [10] = log P by HPLC on reversed phase columns (EEC directive 79/831 Annex V.A8); assay type: physicochemical; details: LC-UV, neutral range; for chromatographic logP: reversed phase HPLC column
# [11] = surface concentration 4 mg/m^2, 30 min exposure
# [12] = 0.001 molar ammonium acetate in water and acetonitrile (table footnote), read-out: LogP^[a]
compound,measurement,setting,value
CC(c1ncnn1-c1ncccn1)N(CC1(c2ccccc2)CC1)C(=O)c1cc(Cl)cc(C(F)(F)F)c1 (stereo not shown) [Example I-006],mortality at 500 g/ha,[1],100%
same,mortality at 100 ppm,[2],100%
same,mortality at 500 g/ha,[3],100%
same,mortality at 20 mg/m2,[4],90 to 100%
same,mortality at 20 ppm,[5],90%
CC(c1ncnn1-c1ncccn1)N(CC1CCOCC1)C(=O)c1cc(Cl)cc(C(F)(F)F)c1 (stereo not shown) [Example I-008],mortality at 500 g/ha,[1],100%
same,mortality at 20 ppm,[5],100%
CC(c1ncnn1-c1ncccn1)N(CC1(C)CC1)C(=O)c1cc(Cl)cc(C(F)(F)F)c1 (stereo not shown) [Example I-009],mortality at 500 g/ha,[1],100%
same,mortality at 100 ppm,[2],100%
same,mortality at 500 g/ha,[3],100%
same,mortality at 4 ppm,[5],100%
same,mortality at 20 ppm,[5],100%
same,pest or weed control at 0.02 mg,[6],80%
same,mortality at 500 g/ha,[7],100%
CC(c1ncnn1-c1ncccn1)N(CC1CCCO1)C(=O)c1cc(Cl)cc(C(F)(F)F)c1 (stereo not shown) [Example I-012],mortality at 20 ppm,[5],100%
CC(c1ncnn1-c1ncccn1)N(Cc1ccncc1)C(=O)c1cc(Cl)cc(C(F)(F)F)c1 (stereo not shown) [Example I-014],mortality at 500 g/ha,[1],100%
same,mortality at 100 ppm,[2],100%
same,mortality at 500 g/ha,[3],100%
same,mortality at 500 g/ha,[8],100%
same,mortality at 4 ppm,[5],100%
same,mortality at 20 ppm,[5],100%
same,pest or weed control at 0.02 mg,[6],100%
same,mortality at 500 g/ha,[7],100%
CC(c1ncnn1-c1ncccn1)N(CC1CCOC1)C(=O)c1cc(Cl)cc(C(F)(F)F)c1 (stereo not shown) [Example I-015],mortality at 500 g/ha,[1],100%
same,mortality at 100 ppm,[2],100%
same,mortality at 500 g/ha,[3],100%
same,mortality at 20 ppm,[5],100%
same,pest or weed control at 0.02 mg,[6],100%
CC(c1ncnn1-c1ncccn1)N(Cc1ccc(C#N)cc1)C(=O)c1cc(Cl)cc(C(F)(F)F)c1 (stereo not shown) [Example I-018],mortality at 500 g/ha,[1],100%
same,mortality at 4 mg/m2,[9]; [11],90 to 100%
same,mortality at 20 mg/m2,"[9]; surface concentration 20 mg/m^2, 30 min exposure",90 to 100%
same,mortality at 100 ppm,[2],100%
same,mortality at 500 g/ha,[3],100%
same,mortality at 4 mg/m2,[4]; [11],80 to 100%
same,mortality at 20 mg/m2,[4],90 to 100%
same,mortality at 4 ppm,[5],100%
same,mortality at 20 ppm,[5],100%
same,pest or weed control at 0.02 mg,[6],90%
same,mortality at 500 g/ha,[7],100%
CC(c1ncnn1-c1ncccn1)N(Cc1cccnc1)C(=O)c1cc(Cl)cc(C(F)(F)F)c1 (stereo not shown) [Example I-019],mortality at 500 g/ha,[1],100%
same,mortality at 100 ppm,[2],90%
same,mortality at 500 g/ha,[3],100%
same,mortality at 500 g/ha,[8],100%
same,mortality at 20 mg/m2,[4],90 to 100%
same,mortality at 4 ppm,[5],100%
same,mortality at 20 ppm,[5],100%
same,pest or weed control at 0.02 mg,[6],100%
same,mortality at 500 g/ha,[7],100%
COc1ccc(CN(C(=O)c2cc(Cl)cc(C(F)(F)F)c2)C(C)c2ncnn2-c2ncccn2)cc1 (stereo not shown) [Example I-020],mortality at 100 ppm,[2],100%
same,mortality at 20 ppm,[5],100%
same,pest or weed control at 0.02 mg,[6],80%
same,mortality at 500 g/ha,[7],100%
"CC(NCc1ccccn1)c1ncnn1-c1ncccn1 (stereo not shown) [a-001, N-(pyridin-2-ylmethyl)-1-[1-(pyrimidin-2-yl)-1H-1,2,4-triazol-5-yl]ethanamine]",chromatographic logP,[10]; [12],0.72
same,chromatographic logP,"[10]; 0.001 molar ammonium acetate in water and acetonitrile, read-out: log P^[b]",0.77
CC(NC1CC1)c1ncnn1-c1ncccn1 (stereo not shown) [a-002],chromatographic logP,[10]; [12],0.75
CC(NCC1CCOCC1)c1ncnn1-c1ncccn1 (stereo not shown) [a-003],chromatographic logP,[10]; [12],0.85
CC(NCC1CCCC1)c1ncnn1-c1ncccn1 (stereo not shown) [a-004],chromatographic logP,[10]; [12],1.67
CC(NCC1(c2ccccc2)CC1)c1ncnn1-c1ncccn1 (stereo not shown) [a-005],chromatographic logP,[10]; [12],1.9
COCCNC(C)c1ncnn1-c1ncccn1 (stereo not shown) [a-006],chromatographic logP,[10]; [12],0.52
CC(NCC1CSC1)c1ncnn1-c1ncccn1 (stereo not shown) [a-007],chromatographic logP,[10]; [12],1.12
CC(NCC1CS(=O)(=O)C1)c1ncnn1-c1ncccn1 (stereo not shown) [a-008],chromatographic logP,[10]; [12],0.51
CC(NCCc1ccc(F)cc1)c1ncnn1-c1ncccn1 (stereo not shown) [a-009],chromatographic logP,[10]; [12],1.62
CC(NCC1(C)CC1)c1ncnn1-c1ncccn1 (stereo not shown) [a-010],chromatographic logP,[10]; [12],1.73
CC(NCc1ncccn1)c1ncnn1-c1ncccn1 (stereo not shown) [a-011],chromatographic logP,[10]; [12],0.38
CC(NCC1CCCO1)c1ncnn1-c1ncccn1 (stereo not shown) [a-012],chromatographic logP,[10]; [12],0.8
CC(NCC1CCOC1)c1ncnn1-c1ncccn1 (stereo not shown) [a-013],chromatographic logP,[10]; [12],0.66
CC(NCc1ccncc1)c1ncnn1-c1ncccn1 (stereo not shown) [a-014],chromatographic logP,[10]; [12],0.53
CC(NCC1CCOC1)c1ncnn1-c1ncccn1 (stereo not shown) [a-015],LogP^[a],[10]; 0.001 molar ammonium acetate in water and acetonitrile (table footnote),0.66
CC(NCC1CCCCC1)c1ncnn1-c1ncccn1 (stereo not shown) [a-016],chromatographic logP,[10]; [12],2.03
CSCCNC(C)c1ncnn1-c1ncccn1 (stereo not shown) [a-017],chromatographic logP,[10]; [12],0.92
CC(NCc1ccc(C#N)cc1)c1ncnn1-c1ncccn1 (stereo not shown) [a-018],chromatographic logP,[10]; [12],1.35
CC(NCc1cccnc1)c1ncnn1-c1ncccn1 (stereo not shown) [a-019],chromatographic logP,[10]; [12],0.68
COc1ccc(CNC(C)c2ncnn2-c2ncccn2)cc1 (stereo not shown) [a-020],chromatographic logP,[10]; [12],1.41
CC(NC1COC1)c1ncnn1-c1ncccn1 (stereo not shown) [a-021],chromatographic logP,[10]; [12],0.26
CC(NCC1OCCO1)c1ncnn1-c1ncccn1 (stereo not shown) [a-022],chromatographic logP,[10]; [12],0.53
CC(NC1CSC1)c1ncnn1-c1ncccn1 (stereo not shown) [a-023],chromatographic logP,[10]; [12],0.87
CONC(C)c1ncnn1-c1ncccn1 (stereo not shown) [a-024],chromatographic logP,[10]; [12],0.42
CSCCNC(C)c1ncnn1-c1ccc(C#N)cn1 (stereo not shown) [a-025],chromatographic logP,[10]; [12],1.65
CC(NCCSC(F)(F)F)c1ncnn1-c1ccc(C#N)cn1 (stereo not shown) [a-026],chromatographic logP,[10]; [12],2.51
